From ChEMBL document CHEMBL1240316, “An oxidation-sensing mechanism is used by the global regulator MgrA in Staphylococcus aureus” (2006)
In brackets after ≈: the same amount, converted by molar mass.

What was measured:
Format in all cases: functional
Staphylococcus aureus [1] = experiment: Antimicrobial activity against compound treated Staphylococcus aureus harboring mgrA C12S mutant gene retro-orbitally infected into mouse assessed as reduction in bacterial CFU in liver at 10 ug/ml relative to control
Staphylococcus aureus [2] = experiment: Antimicrobial activity against compound treated Staphylococcus aureus harboring mgrA C12S mutant gene retro-orbitally infected into mouse assessed as reduction in bacterial CFU in kidney at 10 ug/ml relative to control
Staphylococcus aureus [3] = experiment: Antimicrobial activity against Staphylococcus aureus
Staphylococcus aureus [4] = experiment: Antimicrobial activity against Staphylococcus aureus expressing mgrA C12S mutant gene

Compound | fold change (FC) (Staphylococcus aureus [1]) | fold change (FC) (Staphylococcus aureus [2]) | MIC (Staphylococcus aureus [3]) [µg/mL] | MIC (Staphylococcus aureus [4]) [µg/mL]
CC[C@H]1OC(=O)[C@H](C)[C@@H](O[C@H]2C[C@@](C)(OC)[C@@H](O)[C@H](C)O2)[C@H](C)[C@@H](O[C@@H]2O[C@H](C)C[C@H](N(C)C)[C@H]2O)[C@](C)(O)C[C@@H](C)C(=O)[C@H](C)[C@@H](O)[C@]1(C)O [ERYTHROMYCIN] | 100 | 10000 |  | 
CCn1cc(C(=O)O)c(=O)c2cc(F)c(N3CCNCC3)cc21 [NORFLOXACIN] |  |  | 0.7 (≈ 2.19 µM) | 1.4 (≈ 4.38 µM)
